# Laboratory results published in US12247004B2, “2-amino-N-(amino-oxo-aryl-lambda6-sulfanylidene)acetamide compounds and their therapeutic use” (Oxford Drug Design Limited, priority 2019, dated 2025).
# Like-named read-outs stand apart in the source and are kept apart here.
# Key:
# [1] = target: Leucyl-tRNA synthetase (LeuRS) (Escherichia coli (strain K12), UniProt P07813); assay: Leucyl-tRNA synthetase enzyme inhibition (AMP-Glo; single point % inhibition at 100 μM and IC50); type: biochemical
# Excerpt: Study 1—Enzyme Inhibition
# The aminoacylation reaction catalyzed by aminoacyl-tRNA synthetases (aaRS) takes place in two steps. In the first step, aaRS activates its cognate amino acid with ATP; and in the second step the activated amino acid is loaded to its corresponding tRNA. This reaction can be summarized as follows: aaRS+aa+ATP=aaRS-aa-AMP+PPi aaRS-aa-AMP+tRNA=aa-tRNA+AMP+aaRS
# wherein: aaRS, aminoacyl-tRNA synthetase; aa, amino acid; aaRS-aa-AMP, enzyme-bound to aminoacyl-adenylate; AMP, adenosine monophosphate; aa-tRNA, aminoacyl-tRNA, PPi, inorganic pyrophosphate.
# a. Single Point Percentage Inhibition
# The activity of the pathogenic aaRSs was monitored by measuring AMP production using the commercial kit AMP-Glo (Promega, Madison, USA).
# Ligand stock solutions were prepared in 100% DMSO at 10 mM concentration. An assay buffer consisting of 100 mM Tris HCl pH 7.6, 40 mM MgCl, 20 mM KCl and 150 mM NaCl was prepared in dH2O.
# Using the same enzymatic assay in a 384-well plate format, ten point concentration response curves were generated for each compound using a top concentration of 10 μM. The known inhibitor LeuAMS was used as a positive control for the LeuRS assay. 100% DMSO was used as a negative control. The IC50 was calculated based on non-linear regression analysis.
# [2] = system: bacteria (ATCC reference strains); assay: Antibacterial activity, MIC by broth micro-dilution (CLSI)
# [3] = E. coli LeuRS, read-out: Enzyme Inhibition - IC50, E. coli LeuRS
# [4] = Escherichia coli, BAA2469, read-out: Antibacterial Activity (MIC), G = E. coli BAA-2469
# [5] = Klebsiella pneumoniae, ATCC700603, read-out: Antibacterial Activity (MIC), C = K. pneumoniae ATCC 700603
# [6] = Escherichia coli, ATCC25922, read-out: Antibacterial Activity (MIC), A = E. coli ATCC 25922
# [7] = Haemophilus influenzae, ATCC49247, read-out: Antibacterial Activity (MIC), F = H. influenzae ATCC 49247
# [8] = Acinetobacter baumannii, read-out: Antibacterial Activity (MIC), E = A. baumannii B1931
# [9] = Enterobacter cloacae, read-out: Antibacterial Activity (MIC), B = Enterobacter cloacae B1966
# [10] = Pseudomonas aeruginosa, ATCC27853, read-out: Antibacterial Activity (MIC), D = P. aeruginosa ATCC 27853
# Leucyl-tRNA synthetase (LeuRS), sequence (P07813 whole entry, looked up): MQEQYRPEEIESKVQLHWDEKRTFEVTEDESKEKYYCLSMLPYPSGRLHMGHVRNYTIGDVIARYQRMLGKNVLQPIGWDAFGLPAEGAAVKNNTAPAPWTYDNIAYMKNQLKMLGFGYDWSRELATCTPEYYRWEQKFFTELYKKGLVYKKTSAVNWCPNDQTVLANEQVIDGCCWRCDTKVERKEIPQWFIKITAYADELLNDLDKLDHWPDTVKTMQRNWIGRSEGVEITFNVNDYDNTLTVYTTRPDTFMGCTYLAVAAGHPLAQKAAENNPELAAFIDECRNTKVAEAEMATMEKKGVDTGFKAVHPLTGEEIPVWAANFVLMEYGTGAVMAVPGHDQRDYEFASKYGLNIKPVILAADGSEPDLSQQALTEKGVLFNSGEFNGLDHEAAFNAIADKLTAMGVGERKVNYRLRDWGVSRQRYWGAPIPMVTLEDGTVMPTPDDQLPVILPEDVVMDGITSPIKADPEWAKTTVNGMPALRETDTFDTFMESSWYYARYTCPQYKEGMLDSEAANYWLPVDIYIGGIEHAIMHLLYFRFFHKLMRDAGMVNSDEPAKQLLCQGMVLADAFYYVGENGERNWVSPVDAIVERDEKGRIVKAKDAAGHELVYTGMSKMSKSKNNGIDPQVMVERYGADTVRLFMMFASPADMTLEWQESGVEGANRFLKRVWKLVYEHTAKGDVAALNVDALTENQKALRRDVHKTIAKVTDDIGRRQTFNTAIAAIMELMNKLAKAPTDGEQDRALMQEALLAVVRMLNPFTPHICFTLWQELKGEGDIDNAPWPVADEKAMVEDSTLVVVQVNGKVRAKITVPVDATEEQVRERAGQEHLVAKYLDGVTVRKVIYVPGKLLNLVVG
SMILES,"IC50 [1, 3] [µM]","MIC [2, 4] [µg/mL]","MIC [2, 5] [µg/mL]","MIC [2, 6] [µg/mL]",IC50 [1] [µM],"MIC [2, 7] [µg/mL]","MIC [2, 8] [µg/mL]","MIC [2, 9] [µg/mL]","MIC [2, 10] [µg/mL]"
CC(C)C[C@H](N)C(=O)N=S(N)(=O)c1cc(F)c(F)s1 (some centres unmarked) [ANASIA-063],0.223,64,> 256,,,,,,
CCOc1cccc(S(N)(=O)=NC(=O)[C@@H](N)CC(C)C)c1 (some centres unmarked) [ANASIA-066],0.553,> 64,,64,,,,,
CC(C)C[C@H](N)C(=O)N=[S@@](N)(=O)c1scc(F)c1F [ANASIA-103-2],0.21,,,16,,,,,
CC(C)C[C@H](N)C(=O)N=[S@](N)(=O)c1csc(Cl)c1Cl.Cl [ANASIA-125-1],,64,> 256,,0.304,,,,
Cc1cscc1[S@@](N)(=O)=NC(=O)[C@@H](N)CC(C)C.Cl [ANASIA-094-1],,64,128,8,0.476,,,,
CC(C)C[C@H](N)C(=O)N=S(N)(=O)c1sccc1-c1ccccc1 (some centres unmarked) [ANASIA-068],0.141,> 64,,32,,,,,
CC(C)C[C@H](N)C(=O)N=[S@](N)(=O)c1ccccn1.Cl [ANASIA-075-1],,,,32,0.42,> 64,,,
CC(C)C[C@H](N)C(=O)N=[S@](N)(=O)c1cccc(C(F)(F)F)c1.Cl [ANASIA-089-1],,,,64,0.195,64,,,
CC(C)C[C@H](N)C(=O)N=[S@](N)(=O)c1sc(Cl)cc1Cl.Cl [ANASIA-120-1],,,,32,0.293,,,,
CC(C)C[C@H](N)C(=O)N=[S@](N)(=O)c1ccsc1C(F)F.Cl [ANASIA-126-1],,32,256,5.66,0.208,,> 64,> 64,> 64
CC(C)C[C@H](N)C(=O)N=S(N)(=O)c1csc(F)c1 (some centres unmarked) [ANASIA-060],0.227,16,32,,,,,,
Cc1csc([S@@](N)(=O)=NC(=O)[C@@H](N)CC(C)C)c1C.Cl [ANASIA-104-1],,16,128,8,0.241,,,,
CC(C)C[C@H](N)C(=O)N=S(N)(=O)c1ccc(F)s1 (some centres unmarked) [ANASIA-071],0.173,8,32,,,,,,
CC(C)C[C@H](N)C(=O)N=S(N)(=O)c1ccsc1F (some centres unmarked) [ANASIA-074],0.0992,16,32,,,,,,
"C=Cc1ccc([S@@](N)(=O)=NC(=O)[C@@H](N)CC(C)C)s1 [ANASIA-105-1, (S)-2-amino-N—((S)-amino(oxo)(5-vinylthiophen-2-yl)-λ6-sulfanylidene)-4-methylpentanamide]",,,,32,0.489,,,,
CC(C)C[C@H](N)C(=O)N=[S@](N)(=O)c1csc2ccccc12 [ANASIA-083-1],0.157,,,32,,32,,,
Cc1cc([S@@](N)(=O)=NC(=O)[C@@H](N)CC(C)C)cs1.Cl [ANASIA-098-1],,4,32,3.17,0.148,,64,16,64
Cc1c([S@@](N)(=O)=NC(=O)[C@@H](N)CC(C)C)csc1Cl.Cl [ANASIA-122-1],,,,32,0.167,,,,

SMILES,"IC50 [1, 3] [µM]","MIC [2, 4] [µg/mL]","MIC [2, 5] [µg/mL]","MIC [2, 6] [µg/mL]",IC50 [1] [µM],"MIC [2, 7] [µg/mL]","MIC [2, 8] [µg/mL]","MIC [2, 9] [µg/mL]","MIC [2, 10] [µg/mL]"
CC(C)C[C@H](N)C(=O)N=[S@](N)(=O)c1ccc2c(c1)OCO2.Cl [ANASIA-101-1],,,,64,1.67,,,,
CC(C)C[C@H](N)C(=O)N=[S@](N)(=O)c1cc(F)cs1 [ANASIA-062-1],,8,32,,0.0475,,,,
"CC(C)C[C@H](N)C(=O)N=S(N)(=O)c1ccccc1O (stereo partly drawn) [ANASIA-113, (2S)-2-amino-N-(amino(2-hydroxyphenyl)(oxo)-λ6-sulfanylidene)-4-methylpentanamide]",3.23,,,64,,,,,
CC(C)C[C@H](N)C(=O)N=S(N)(=O)c1sccc1F (some centres unmarked) [ANASIA-070],0.143,32,64,,,,,,
CC(C)C[C@H](N)C(=O)N=[S@](N)(=O)c1csc2cccnc12.Cl [ANASIA-131-1],,> 64,256,32,0.53,,,,
Cc1csc([S@@](N)(=O)=NC(=O)[C@@H](N)CC(C)C)c1.Cl [ANASIA-095-1],,2,10.1,0.794,0.029,,8,8,32
"CC(=O)c1sccc1[S@@](N)(=O)=NC(=O)[C@@H](N)CC(C)C (single isomer, unassigned) [ANASIA-112-1]",,64,,32,0.294,,,,
COc1ccc([S@@](N)(=O)=NC(=O)[C@@H](N)CC(C)C)s1.Cl [ANASIA-109-1],,32,,32,2.56,,,,
CCc1ccsc1[S@@](N)(=O)=NC(=O)[C@@H](N)CC(C)C.Cl [ANASIA-119-1],,8,64,4,0.0997,,32,32,> 64
CC(C)C[C@H](N)C(=O)N=[S@@](N)(=O)c1csc(C#N)c1.Cl [ANASIA-135-2],0.262,64,> 256,8,,,,,
CC(C)C[C@H](N)C(=O)N=[S@](N)(=O)c1cc(Cl)c(Cl)s1.Cl [ANASIA-121-1],,16,> 256,8,0.0417,,,,
CC(C)C[C@H](N)C(=O)N=[S@](N)(=O)c1csc(Cl)c1.Cl [ANASIA-099-1],,4,8,0.5,0.124,,16,4,64
Cc1sccc1[S@@](N)(=O)=NC(=O)[C@@H](N)CC(C)C.Cl [ANASIA-091-1],,> 64,,64,0.847,,,,
Cc1nc([S@@](N)(=O)=NC(=O)[C@@H](N)CC(C)C)cs1.Cl [ANASIA-129-1],,64,128,,0.319,,,,
"CCc1csc([S@@](N)(=O)=NC(=O)[C@@H](N)CC(C)C)c1 [ANASIA-133-1, (S)-2-amino-N—((S)-amino(4-ethylthiophen-2-yl)(oxo)-λ6-sulfanylidene)-4-methylpentanamide]",,8,128,,0.0973,,,,
CC(C)C[C@H](N)C(=O)N=[S@](N)(=O)c1csc2ccsc12.Cl [ANASIA-100-1],,5.66,45.3,1,0.0278,,16,16,64
CC(C)C[C@H](N)C(=O)N=[S@](N)(=O)c1scc(Br)c1Br.Cl [ANASIA-107-1],,,,32,0.106,,,,
CC(C)C[C@H](N)C(=O)N=[S@](N)(=O)c1cc(C#N)cs1.Cl [ANASIA-136-1],,> 64,> 256,8,0.0718,,,,
